Data on 1 molecule can be found in patent US11390580B2, “Anti-fungals targeting the synthesis of fungal shingolipids” (THE RESEARCH FOUNDATION FOR THE STATE UNIVERSITY OF NEW YORK, priority 2014, dated 2022).

For one series, the system named is Coccidioides spp. Nature of the series: microbe, parasite or virus in culture. The class given is cell-based. The conditions noted are these: for BHBM 48 Hr 50%: MIC, FTL strains.
The test system of a further series is Histoplasma capsulatum. The class given is cell-based.
The next series in a line: Solubility. The note with it: at 1 mg/ml concentration. It counts as physicochemical.
The subject of a further series is Candida albicans. The series can be described thus: In vitro susceptibility testing (MIC). The class given is cell-based.
The next series deals with Paecilomyces variotii. The series can be described thus: In vitro susceptibility testing (MIC). The class given is cell-based. The conditions noted are these: for BHBM 24 Hr 50% / BHBM 48 Hr 50%: MIC, QC strain.
Another series has as its system Candida spp. The series can be described thus: In vitro susceptibility testing. It counts as cell-based. The note with it: most Candida spp examined.
Another series relates to Aspergillus fumigatus. The series can be described thus: In vitro susceptibility testing (MIC). It counts as cell-based.

≈ marks a conversion by molar mass, not a printed value. Where “and” joins values, the source holds several entries; their conditions need not be identical. Identical values can stand only once.

As for `Cc1ccccc1C(=O)NN=Cc1ccc(O)c(Br)c1` [BHBM, N′-(3-bromo-4-hydroxybenzylidene)-2-methylbenzohydrazide], the MIC range against Coccidioides spp (10 Fungus Testing Lab strains) was 8 to 16 µg/mL; in the series with Histoplasma capsulatum (10 Fungus Testing Lab strains) it was 0.125 to 1 µg/mL; in the series on Candida albicans (3 Fungus Testing Lab strains), over 32 µg/mL; in the series on Candida albicans (5 MDP Lab strains) it was over 32 µg/mL; against Paecilomyces variotii (QC, Fungus Testing Lab) it was over 16 µg/mL; with Aspergillus fumigatus (1 MDP Lab strain), 8 µg/mL (≈ 24 µM). The molecule further showed an MIC range against Aspergillus fumigatus (3 Fungus Testing Lab strains) of over 16 µg/mL. In addition, the MIC in the series with Coccidioides spp (Coccidioides, read-out: MIC (moderately active)) was 8 to 16 µg/mL (≈ 24 to 48 µM); in the series on Aspergillus fumigatus (Aspergillus fumigatus, read-out: MIC (moderately active)) it was 8 to 16 µg/mL (≈ 24 to 48 µM). Moreover, the “BHBM 48 Hr 50%” value in the series with Coccidioides spp is 16 and 8 and >16; in the series on Coccidioides spp (first listing r7-r78), 8 and 16; with Paecilomyces variotii, over 16; in the series with Paecilomyces variotii (first listing r7-r78) it was over 16. Moreover, the “in vitro activity” value in the series on Histoplasma capsulatum is given as “good in vitro activity”; in the series on Candida albicans it was “not active”; with Paecilomyces variotii, “not active”. In “Solubility”, this molecule returned a DMSO required of 30%. Besides, the “BHBM 24 Hr 50%” value with Paecilomyces variotii and with Paecilomyces variotii (first listing r7-r78) was 8 each time. For the same molecule, the in vitro susceptibility entry in the series on Candida spp is “resistant”. Besides, the “improvement in survival, low dose vs vehicle treated negative controls” value in the series on P. murina (0.8 mg/Kg/twice a day, 13 days) was “the difference was not significant”. Also, the “survival, low dose vs high dose” value in the series on P. murina (0.8 or 1.6 mg/Kg/twice a day, 13 days) is recorded as “low dose mice showed improved survival over the high dose mice”. Also, the “number of asci and nuclei in lung homogenates vs negative control” value with P. murina (13 days of treatment) is “No significant differences”.
